Assay results reported in US10988434B2, “Fragrance mixture” (SYMRISE AG, priority 2016, dated 2021).

Experiment: Storage stability under drastic conditions
Assay type: physicochemical
Conditions: 60° C. and 5 bar pressure
Procedure: Example 15: Stability Studies
Mesaconic acid diethyl ester (MSDEE) was stored alone and as a component of various formulations for 24 and 72 hours respectively under drastic conditions at 60° C. and 5 bar pressure. The remaining amount of active substance was then determined.

Question: Which “Storage stability: remaining amount of active substance (MSDEE) After 24 h” value (24 h) does the source give for `CCOC(=O)/C=C(\C)C(=O)OCC` [Mesaconic acid diethyl ester, (E)-2-methyl-but-2-endicarboxylic acid diethyl ester] here?
Answer: 98%

Question: And the “Storage stability: remaining amount of active substance (MSDEE) After 72 h” value (72 h)?
Answer: 98%
